Measurements from US8377969B2, “Compounds for use in the treatment of cancer” (PledPharma AB, priority 2007, dated 2013).

Tests used:
[1] = tested on: human ileocecal colorectal adenocarcinoma cells (HCT-8); test: Fluorometric microculture cytotoxicity assay (FMCA), HCT-8; format: cell-based; details: HCT-8 cells; for cytostatic effect (alone): FMCA, 72 h
Description: (§1) HCT-8 cells were grown in RPMI 1640 medium with sodium pyruvate (1 mM) and 10% horse serum. SW620 were grown in ATCC-formulated Leibovitz's L-15 Medium with 10% fetal bovine serum. Cells were kept at 37° C. in a humidified atmosphere containing 5% carbon dioxide. The cells were harvested in the log-phase for experimental use. The fluorometric microculture cytotoxicity assay (FMCA) was used to investigate the cytostatic activity of oxaliplatin, MnDPDP or DPDP and combinations thereof. FMCA is based on measurement of fluorescence generated from hydrolysis of fluorescein diacetate (FDA) to fluorescein by cells with intact plasma membranes. Briefly, 96-well microtiter plates were freshly prepared with drug solutions in triplicates at 10 times the desired drug concentrations. Cell suspensions were seeded into the drug-prepared plates with 20 000 cells per well and plates were then incubated for 72 h. After incubation, the plates were washed, FDA was added, and after 50 min of incubation the fluorescence generated (excitation 480 nm) was measured at 538 nm in a fluorometer (Fluorostar Optima, BMG Technologies). The fluorescence is proportional to the number of cells with intact plasma membrane present in the well.

[2] = tested on: human colon cancer SW480 cells; details: 24 h, MTT
Description: (§2) The viability of cells was measured using the MTT assay. Briefly, 20,000 SW480 or J774 cells were seeded per well on a 96-well plate and grown over night in Dulbecco's Modified Eagle's Medium (DMEM) containing 10% fetal bovine serum, 2 mM L-glutamine, 100 Ul/ml penicillin and 100 μg/ml streptomycin at 37° C. in humidified air with 5% CO2. Cells were then exposed for 24 h to 50 μM MnDPDP, 50 μM DPDP or 10 μM oxaliplatin at 37° C. The effect of combining 50 μM DPDP with 10 μM oxaliplatin on viability was also tested. The viability of the cells was then assessed by adding 5 mg/ml methylthiazoletetrazolium (MTT) to a final concentration of 0.5 mg/ml and incubating cells for a further 4 h at 37° C. The blue formazan that is formed by mitochondrial dehydrogenases of viable cells was then dissolved over night at 37° C. by adding 10% SDS and 10 mM HCl to a final concentration of 5% SDS and 5 mM HCl. Finally, the absorbance of the solution was read at 570 nm with a reference at 670 nm in a microplate reader Spectramax 340 (Molecular Devices, Sunnyvale, Calif., USA) connected to an Apple Macintosh computer running the program Softmax Pro V1.2.0 (Molecular Devices, Sunnyvale, Calif., USA).

[3] = tested on: murine lymphoma J774 cells; details: 24 h, MTT
Description: as §2

[4] = Fenton assay (competition with iron, H2DCF oxidation); details: FIG. 4
Description: By permitting the chelator DPDP, the metal complexes MnDPDP and MnPLED to compete with iron in the Fenton assay, the stability of MnDPDP and MnPLED was compared.
H2O2 (100 μM) was added to initiate the production of hydroxyl radicals (HO.). The latter oxidize H2DCF (non-fluorescent 2′,7′-dichlorodihydrofluorescein; 5 μM) to fluorescent DCF (2′,7′-dichlorofluorescein). H2DCF was obtained by hydrolysing its acetate ester (H2DCF-DA)]. […] DPDP, MnDPDP and MnPLED at various concentrations were assayed for their iron-chelating capacity. Fluorescence was measured in an FL600 Microplate Fluorescence reader (Bio-Tek, Winooski, Vt., U.S.A.) at ex 485 nm and em 530 nm.

[5] = from the reported stability constants
[6] = tested on: human adenocarcinoma cells (SW620); test: Fluorometric microculture cytotoxicity assay (FMCA), SW620; format: cell-based; details: for cytostatic effect (alone): FMCA, 72 h
Description: as §1

[7] = tested on: normal retinal epithelia telomerase immortalized cells (hTERT-RPE1); test: Fluorometric microculture cytotoxicity assay (FMCA), hTERT-RPE1; format: cell-based; details: for cytostatic effect (alone): FMCA, 72 h
[8] = Rocklage et al., 1989; cited from earlier work
[9] = Rocklage et al., 1989; cited from earlier work; remark: listed apart in the source
[10] = Rocklage et al., 1989; cited from earlier work; remark: listed apart in the source
[11] = pigs, ten minutes after injection; cited from earlier work
[12] = cited from earlier work
infarct size = details: pigs; MnPLED 3 μmol/kg; cited from earlier work

Q: What does the source list for `Cc1ncc(COP(=O)(O)O)c(CN(CCN(CC(=O)O)Cc2c(COP(=O)(O)O)cnc(C)c2O)CC(=O)O)c1O` [DPDP, N,N′-bis-(pyridoxal-5-phosphate)-ethylenediamine-N,N′-diacetic acid]?
A: potentiation of the cytostatic effects of oxaliplatin ([1]; 100 μM with 8 μM oxaliplatin, FMCA 72 h, FIG. 3C): significantly (unpaired t-test) potentiated; cytostatic effect (alone) [1]: Neither MnDPDP nor DPDP demonstrated any cytostatic effect; cytostatic activity in combination with oxaliplatin versus oxaliplatin alone ([2]; 50 μM DPDP + 10 μM oxaliplatin): tendency, although not statistically significant (p<0.07), that DPDP in combination with oxaliplatin was more potent than oxaliplatin alone; cytostatic activity ([2]; 50 μM, unpaired t-test, FIG. 1): statistically significant more efficacious than that of 50 μM MnDPDP; cytostatic activity in combination with oxaliplatin versus oxaliplatin alone ([3]; 50 μM DPDP + 10 μM oxaliplatin): significantly more efficacious than oxaliplatin alone; cytostatic activity ([3]; 50 μM, FIG. 2): significantly more efficacious to kill the lymphoma cells than MnDPDP; inhibition of the Fenton reaction ([4]; 10 μM ferric iron, 100 μM cysteine, 100 μM H2O2): inhibited the Fenton reaction in a dose-dependent manner; concentration at which inhibition of the Fenton reaction started ([4]; 10 μM ferric iron): 0.1 µM; concentration at which inhibition of the Fenton reaction was complete ([4]; 10 μM ferric iron): 10 µM; how much more readily Mn^2+ dissociates than Zn^2+ [5]: about 1000 times; potentiation of the cytostatic effects of oxaliplatin ([6]; 100 μM with 8 μM oxaliplatin, FMCA 72 h, FIG. 3B): significantly (unpaired t-test) potentiated; cytostatic effect (alone) [6]: Neither MnDPDP nor DPDP demonstrated any cytostatic effect; potentiation of the cytostatic effects of oxaliplatin ([7]; 100 μM with 8 μM oxaliplatin, FMCA 72 h, FIG. 3D): but not in normal cells; cytostatic effect (alone) [7]: Neither MnDPDP nor DPDP demonstrated any cytostatic effect

Q: With `O=C1[O][Pt]2([NH][C@@H]3CCCC[C@H]3[NH]2)[O]C1=O` [Oxaliplatin, oxaliplatin] as the compound, how does the “cytostatic effect (alone)” value [1] read?
A: concentrations-dependent cytostatic effect

Q: And the “cytostatic effect (alone)” value [6]?
A: concentrations-dependent cytostatic effect

Q: And the “cytostatic effect (alone)” value [7]?
A: only a slight effect at its highest concentration

Q: What does the source list for `Cc1ncc(CO)c(CN(CCN(CC(=O)O)Cc2c(CO)cnc(C)c2O)CC(=O)O)c1O` [PLED, N,N′-dipyridoxyl ethylenediamine-N,N′-diacetic acid]?
A: stability constant with Fe^3+ (ferric iron) [8]: 36.88 logK; stability constant with Zn^2+ [9]: 16.68 logK; stability constant with Mn^2+ [10]: 12.56 logK; how much more readily Mn^2+ dissociates than Zn^2+ [5]: about 1000 times

Q: Which “cytostatic effect (alone)” value [1] does the source give for MnDPDP here?
A: Neither MnDPDP nor DPDP demonstrated any cytostatic effect

Q: And the “replacement of manganese with zinc” value [11]?
A: all manganese has been replaced with zinc

Q: What about the iron-chelating capacity ([4]; Fenton assay) of the same compound?
A: significantly higher than that of MnPLED

Q: And the administered manganese released ([12]; humans, intravenous injection)?
A: about 70%

Q: And the “injected manganese that stays bound to the chelator” value ([12]; man, for a considerable amount of time)?
A: about 30%

Q: And the “injected MnDPDP transformed into MnPLED” value ([12]; man, shortly after intravenous injection)?
A: about 30%

Q: And the infarct size (infarct size)?
A: did not reduce the infarct size

Q: What about the “cytostatic effect (alone)” value [6] of the same compound?
A: Neither MnDPDP nor DPDP demonstrated any cytostatic effect

Q: And the “cytostatic effect (alone)” value [7]?
A: Neither MnDPDP nor DPDP demonstrated any cytostatic effect
